What follows are compounds tested against T1, Tyrosine-protein phosphatase non-receptor type 1 (Homo sapiens, UniProt P18031) (assay: Inhibition of GST-tagged human recombinant PTP1B using para-nitrophenyl phosphate as substrate by spectrophotometric analysis).
T1 sequence (P18031 whole entry): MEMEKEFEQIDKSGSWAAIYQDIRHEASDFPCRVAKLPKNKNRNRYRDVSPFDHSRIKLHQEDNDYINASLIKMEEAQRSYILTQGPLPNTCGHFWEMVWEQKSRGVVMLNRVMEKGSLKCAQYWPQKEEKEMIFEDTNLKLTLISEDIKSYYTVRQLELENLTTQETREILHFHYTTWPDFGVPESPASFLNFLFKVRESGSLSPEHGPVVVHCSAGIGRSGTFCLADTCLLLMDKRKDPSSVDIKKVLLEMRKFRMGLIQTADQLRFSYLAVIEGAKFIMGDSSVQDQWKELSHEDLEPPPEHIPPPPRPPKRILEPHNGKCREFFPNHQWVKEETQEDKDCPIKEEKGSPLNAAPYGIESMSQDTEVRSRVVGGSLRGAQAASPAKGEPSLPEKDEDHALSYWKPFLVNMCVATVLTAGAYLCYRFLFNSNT

IC50 [µM]	SMILES
6.8	CC(C)[C@@H]1C[C@@H](O)[C@H]2[C@@]1(CO)CC[C@@]1(C)[C@H]3C(=CC[C@]21C)C1=CC[C@H](O)C(C)(C)[C@H]1C[C@@H]3O
6.8	CC(C)[C@@H]1C[C@@H](O)[C@H]2[C@@]1(CO)CC[C@@]1(C)[C@H]3C(=CC[C@]21C)C1=C(C[C@@H]3O)[C@](C)(CO)[C@@H](O)CC1
6.8	CC(C)[C@@H]1C[C@@H](O)[C@H]2[C@@]1(CO)CC[C@@]1(C)[C@H]3C(=CC[C@]21C)C1=C(C[C@@H]3O)C(C)(C)[C@@H](O)CC1
6.8	CC(C)[C@@H]1CC(=O)[C@H]2[C@@]1(CO)CC[C@@]1(C)[C@H]3C(=CC[C@]21C)C1=C(C[C@@H]3O)C(C)(C)[C@@H](O)CC1
6.8	CC(C)[C@@H]1[C@H](O)[C@@H](O)[C@H]2[C@@]1(CO)CC[C@@]1(C)[C@H]3C(=CC[C@]21C)C1=C(C[C@@H]3O)C(C)(C)[C@@H](O)CC1

From ChEMBL document CHEMBL2062412, “Structure and bioassay of triterpenoids and steroids isolated from Sinocalamus affinis” (J Nat Prod, 2012)
